Laboratory results from patent US20220296680A1, “TREATMENT AND PREVENTION OF CARDIORENAL DAMAGE” (Oslo Universitetssykehus HF, priority 2021, published 2022).

Tests used:
[1] = test system: prostaglandin E2 (PGE2) formation in the kidney; conditions: Chiou & Vesely 1995; cited from earlier work
ZSF1-Ob rats = test: Interventional study in pre-HFpEF ZSF1-Ob rats (obesity, diabetes, hypertension, diastolic dysfunction); format: in vivo, rat
Method: A hybrid rat that was a cross between a ZDF female and an SHHF male was utilized.
Briefly, we performed an interventional study in pre-HFpEF rats (15 weeks old) affected by obesity, diabetes, hypertension, diastolic dysfunction, and administered either vehicle, VASTIRAS™ (proANP31-67; VAS; 50 ng/Kg/day administered subcutaneously via Alzet osmotic pump), ENTRESTO™ (ENT; 68 mg/Kg/day administered orally via gavage), or VAS+ENT (VAS/ENT).

[2] = test system: ischemia-induced acute tubular necrosis and renal failure; conditions: Recombinant proANP31-67; Clark et al. 2000; cited from earlier work
[3] = test system: neprilysin and other endopeptidases; conditions: cited from earlier work
[4] = test system: patients with congestive heart failure; conditions: Delacroix et al. 2016; cited from earlier work
[5] = in vivo; cited from earlier work
[6] = ZSF1-Ob rats, autopsy, VAS 50 ng/Kg/day sc, ENT 68 mg/Kg/day oral, FIGS. 3-4
[7] = ZSF1-Ob rats, cardiac ultrasound

## proANP31-67 (EVVPPQVLSEPNEEAGAALSPLPEVPPWTGEVSPAQR) [VAS]
[1]
  prostaglandin E2 (PGE2) formation in the kidney: stimulate
ZSF1-Ob rats; ZSF1-Ob rats treated from 15 weeks old, assessed at 25 weeks-old, VAS 50 ng/Kg/day sc, ENT 68 mg/Kg/day oral gavage, FIGS. 5-6
  Elevated blood pressure: not affected
ZSF1-Ob rats; [6]
  atria weight (AW)/TL: tended to decrease
  body weight (BW): tended to decrease
  heart weight (HW)/tibia length (TL): tended to decrease
  kidney weight (KW)/TL: tended to decrease
ZSF1-Ob rats; [7]
  cardiac output: improved
  global longitudinal strain (GLS): tended to increase
ZSF1-Ob rats; ZSF1-Ob rats, renal ultrasound, FIGS. 7-13
  renal vascularity: preserved
[2]
  ischemia-induced acute tubular necrosis and renal failure: protect
[3]
  degradation by neprilysin and other endopeptidases: resistant
[4]
  treatment for renal impairment in patients with congestive heart failure: safe and effective
[5]
  excretion in urine: excreted largely intact
